Measured values: article PMC5281649 (European Journal of Nuclear Medicine and Molecular Imaging, 2016)
Like-named read-outs stand apart in the source and are kept apart here.

Biological target: T1, brain MAO-B enzyme (Homo sapiens, UniProt P27338)
T1 sequence (P27338 1-520): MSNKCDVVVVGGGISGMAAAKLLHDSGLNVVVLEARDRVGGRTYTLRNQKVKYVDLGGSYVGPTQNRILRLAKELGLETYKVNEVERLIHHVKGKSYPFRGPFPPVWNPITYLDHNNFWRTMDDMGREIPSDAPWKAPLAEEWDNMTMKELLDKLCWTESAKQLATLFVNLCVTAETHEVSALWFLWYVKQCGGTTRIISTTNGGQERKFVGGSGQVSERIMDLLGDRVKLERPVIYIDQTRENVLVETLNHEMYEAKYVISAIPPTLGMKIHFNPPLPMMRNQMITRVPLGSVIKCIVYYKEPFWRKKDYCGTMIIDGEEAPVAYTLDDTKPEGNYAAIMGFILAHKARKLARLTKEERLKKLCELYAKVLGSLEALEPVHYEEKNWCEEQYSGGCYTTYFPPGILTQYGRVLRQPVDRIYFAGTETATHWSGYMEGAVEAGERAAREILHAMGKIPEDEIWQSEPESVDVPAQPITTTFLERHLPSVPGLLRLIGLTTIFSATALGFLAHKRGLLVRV
Experiment: PET with [11C]-L-deprenyl-D2: brain MAO-B inhibition after repeated oral sembragiline
Format: in vivo
Conditions: for receptor occupancy at 0.2 mg: 168 h; for receptor occupancy at 0.2 mg / receptor occupancy at 1 mg: EC subjects, read-out: Occ (MAO-B occupancy); for receptor occupancy at 0.2 mg / receptor occupancy at 1 mg / [11C]-L-deprenyl-D2 λk3 post-dose: mean (range); for receptor occupancy at 1 mg: 336 h; for [11C]-L-deprenyl-D2 λk3 post-dose: AD patients
Protocol: The first dose was administered at the study centre under the supervision of study personnel. On subsequent study days, treatment compliance was assured by intake logs and tablet counting.
At baseline, each subject underwent a PET scan using [^11C]-L-deprenyl-D2 to measure MAO-B enzyme activity in the brain prior to their first dose of allocated medication. The second scan was performed at trough concentrations at steady state prior to the last drug administration. Before each scan, a cannula was inserted into a radial artery and another into an antecubital vein. A sterile phosphate buffer (pH = 7.4) containing radioligand was injected as a bolus over several seconds into the cubital vein.
A transmission scan was performed using three rotating ^68Ge rod sources. [^11C]-L-Deprenyl-D2 was injected intravenously as a bolus, and emission data were acquired over 63 min using the ECAT EXACT high-resolution system (Siemens Medical Solutions, Malvern, PA, USA). The injected radioactivity was targeted to approximately 300 MBq. The injected mass of deprenyl was to be ≤100 μg, and ≥50–100-fold lower than the typical administered dose of 5–10 mg deprenyl to patients with Parkinson’s disease. The framing was as follows: 9 frames x 10 s, 2 frames x 15 s, 3 frames x 20 s, 4 frames x 30 s, 4 frames x 60 s, 4 frames x 180 s, 7 frames x 360 s. Images were reconstructed using the standard filtered back-projection, with a 2-mm Hanning filter, a zoom factor of 2.17, and a 128 × 128 matrix, and were corrected for attenuation and scatter. A summation PET image was created for each subject and PET session by averaging across all frames. Time–activity curves were then extracted from selected ROIs.
Arterial blood samples were used for measurement of radioactivity in whole blood and plasma, as well as to determine the parent fraction of the radioligand, using a reversed-phase high-performance liquid chromatography method (Karolinska University Hospital, Solna, Stockholm, Sweden). A catheter was inserted in the radial artery, and arterial blood was collected continuously for 10 min using an automated blood sampling system at a speed of 5 mL/min. Discrete blood samples were drawn approximately 10, 15, 20, 30, 45 and 60 min after each injection of [^11C]-L-deprenyl-D2.
Time–activity data were analysed as previously described. Briefly, [^11C]-L-deprenyl-D2 was quantified by the two-tissue compartment model with three rate constants (K 1, k 2, k 3) using the PMOD 3.3 software package (PMOD Group, Zurich, Switzerland), where the tissue compartments represent the free plus non-specifically bound and specifically bound radiotracer. The outcome measure λk 3 was calculated as (K 1/k 2)*k 3, using a non-linear approach, and was used as an estimate for specific binding to MAO-B that was independent of perfusion. […] This is because λk3 is independent of perfusion and has better reproducibility than k3 alone.

[1] = 5 mg loading day 1 then 0.2 mg q.d. days 2–7, frontal cortex, N = 3
[2] = 5 mg loading day 1 then 0.2 mg q.d. days 2–7, hippocampus, N = 3
[3] = 5 mg loading day 1 then 0.2 mg q.d. days 2–7, parietal cortex, N = 3
[4] = 5 mg loading day 1 then 0.2 mg q.d. days 2–7, striatum, N = 3
[5] = 5 mg loading day 1 then 0.2 mg q.d. days 2–7, thalamus, N = 3
[6] = 5 mg loading day 1 then 0.2 mg q.d. days 2–7, whole brain, N = 3

`CC(=O)N[C@H]1CC(=O)N(c2ccc(OCc3cccc(F)c3)cc2)C1` [sembragiline] was tested, and the “MAO-B inhibition at trough (mean values)” value (1 mg, across all brain ROIs and study populations) was 75–86%, the “MAO-B inhibition (overall range)” value (1 mg, six brain ROIs and study populations, overall) was 71–88% and the “MAO-B inhibition (mean values)” value (5-mg dose, across brain ROIs) was 76–86%. It also gave a receptor occupancy at 0.2 mg [1] of 51.7%, a receptor occupancy at 0.2 mg [2] of 51.6% and a receptor occupancy at 0.2 mg [3] of 50.7%. For the same compound, the receptor occupancy at 0.2 mg [4] was 56.1%, the receptor occupancy at 0.2 mg [5] was 53.7% and the receptor occupancy at 0.2 mg [6] was 49.1%. It also gave a receptor occupancy at 1 mg (1 mg q.d. for 14 days, frontal cortex, N = 3) of 76.2%, a receptor occupancy at 1 mg (1 mg q.d. for 14 days, hippocampus, N = 3) of 83.9% and a receptor occupancy at 1 mg (1 mg q.d. for 14 days, parietal cortex, N = 3) of 76.1%. The receptor occupancy at 1 mg (1 mg q.d. for 14 days, striatum, N = 3) was 84.7%, the receptor occupancy at 1 mg (1 mg q.d. for 14 days, thalamus, N = 3) was 85.7% and the receptor occupancy at 1 mg (1 mg q.d. for 14 days, whole brain, N = 3) was 75.4%. For the same compound, the “[11C]-L-deprenyl-D2 λk3 post-dose” value (1 mg q.d. for 14 days, frontal cortex, N = 2) was 0.04 (0.03–0.04), the “[11C]-L-deprenyl-D2 λk3 post-dose” value (1 mg q.d. for 14 days, hippocampus, N = 2) was 0.05 (0.05–0.05) and the “[11C]-L-deprenyl-D2 λk3 post-dose” value (1 mg q.d. for 14 days, parietal cortex, N = 2) was 0.04 (0.03–0.05). The “[11C]-L-deprenyl-D2 λk3 post-dose” value (1 mg q.d. for 14 days, striatum, N = 2) was 0.04 (0.04–0.05), the “[11C]-L-deprenyl-D2 λk3 post-dose” value (1 mg q.d. for 14 days, thalamus, N = 2) was 0.04 (0.04–0.04) and the “[11C]-L-deprenyl-D2 λk3 post-dose” value (1 mg q.d. for 14 days, whole brain, N = 2) was 0.04 (0.04–0.05). For the same compound, the “[11C]-L-deprenyl-D2 λk3 post-dose” value (5 mg loading day 1 then 0.1 mg q.d. days 2–15, frontal cortex, N = 2) was 0.07 (0.06–0.08), the “[11C]-L-deprenyl-D2 λk3 post-dose” value (5 mg loading day 1 then 0.1 mg q.d. days 2–15, hippocampus, N = 2) was 0.11 (0.10–0.11) and the “[11C]-L-deprenyl-D2 λk3 post-dose” value (5 mg loading day 1 then 0.1 mg q.d. days 2–15, parietal cortex, N = 2) was 0.07 (0.07–0.08). The “[11C]-L-deprenyl-D2 λk3 post-dose” value (5 mg loading day 1 then 0.1 mg q.d. days 2–15, striatum, N = 2) was 0.12 (0.11–0.13), the “[11C]-L-deprenyl-D2 λk3 post-dose” value (5 mg loading day 1 then 0.1 mg q.d. days 2–15, whole brain, N = 2) was 0.08 (0.08–0.09) and the “[11C]-L-deprenyl-D2 λk3 post-dose” value [1] was 0.06 (0.05–0.07). The “[11C]-L-deprenyl-D2 λk3 post-dose” value [2] was 0.07 (0.07–0.08), the “[11C]-L-deprenyl-D2 λk3 post-dose” value [3] was 0.06 (0.05–0.07) and the “[11C]-L-deprenyl-D2 λk3 post-dose” value [4] was 0.08 (0.08–0.08). For the same compound, the “[11C]-L-deprenyl-D2 λk3 post-dose” value [5] was 0.07 (0.07–0.07), the “[11C]-L-deprenyl-D2 λk3 post-dose” value [6] was 0.06 (0.06–0.07) and the “[11C]-L-deprenyl-D2 λk3 post-dose” value (5 mg q.d. for 6–9 days, frontal cortex, N = 2) was 0.04 (0.04–0.04). The “[11C]-L-deprenyl-D2 λk3 post-dose” value (5 mg q.d. for 6–9 days, hippocampus, N = 2) was 0.04 (0.03–0.05), the “[11C]-L-deprenyl-D2 λk3 post-dose” value (5 mg q.d. for 6–9 days, parietal cortex, N = 2) was 0.04 (0.03–0.04) and the “[11C]-L-deprenyl-D2 λk3 post-dose” value (5 mg q.d. for 6–9 days, striatum, N = 2) was 0.05 (0.04–0.05). For the same compound, the “[11C]-L-deprenyl-D2 λk3 post-dose” value (5 mg q.d. for 6–9 days, whole brain, N = 2) was 0.04 (0.04–0.05).
